Data as given in publication PMC10138721, “Investigation of the Compatibility between Warheads and Peptidomimetic Sequences of Protease Inhibitors—A Comprehensive Reactivity and Selectivity Study” (International Journal of Molecular Sciences, 2023).
Entries after “also recorded” stand apart in the source; their conditions may differ. Read-outs that look alike come from different tables or passages of the source.

What was measured:
[1] = target: rhodesain (Trypanosoma brucei rhodesiense, UniProt Q95PM0); test: Fluorometric inhibition assay, rhodesain; type: biochemical; details: for kinact: read-out: kinact, Rhodesain
[2] = target: T1, human cathepsin S (CatS) (Homo sapiens, UniProt P25774); test: Fluorometric inhibition assay, cathepsin S; type: biochemical; details: for kinact: read-out: kinact, CatS
T1 construct: purchased Sigma Aldrich

[3] = target: SARS-CoV-2 main protease (M^pro) (Severe acute respiratory syndrome coronavirus 2, UniProt P0DTD1); test: Fluorometric (FRET) inhibition assay, SARS-CoV-2 M^pro; type: biochemical; details: for activity against M^pro, in words: initial screen at 20 µM, cut-off 80% inhibition
[4] = Reactivity test of warhead probes with PhEtSH without base (NMR/LC-MS); type: physicochemical; details: non-basic conditions
From the text: (§1) To investigate the reactivity between the different warheads towards the three classes of proteases (serine, threonine and cysteine proteases), their behavior in model systems under the same reaction conditions (solvent, nucleophile and base) using either NMR or LC-MS analysis was investigated. We used reactivity probes with a Boc-L-Leu-(warhead) sequence. Leucin was chosen as a P1 amino acid to minimize influences of the side chain and due to synthetic accessibility. 2-Phenylethanethiol was used as a model nucleophile to mimic the thiol moiety of cysteine proteases, and sodium ethoxide was used as a serine/threonine replacement. DMSO-d6 was used as solvent. Under these conditions, the nucleophile is deprotonated, simulating the activated serine or threonine in the catalytic triad of serine and threonine proteases, while ethanol as protonated alcohol species turned out to be unreactive in preliminary test reactions. The reactivity tests using 2-phenylethanthiol were carried out in the presence and absence of triethylamine as a base. This allowed for a reactivity comparison of the warheads towards protonated and deprotonated nucleophilic thiol species. Generating a deprotonated thiol species in the presence of triethylamine simulates the deprotonated cysteine in the catalytic dyad of cysteine proteases. Scheme 8 illustrates the reaction of the reactivity assay with both model nucleophiles and the vinyl sulfone moiety 109 as an example.
(§2) The reactivity tests of all Michael acceptors, 109, 110, 111 and 112, the α-ketobenzothiazole 115 and nitrile 117 were investigated using an NMR-based analysis method, while the β-lactam 108 reactivity was investigated via LC-MS, due to its lack of proton signals, which could be used for evaluation of the reactivity in the ^1H-NMR studies, and the irreversible reaction mechanism, which allowed the LC-MS analysis. […] Formation of the expected adducts with the nitrile 117 (PhEtSH/PhEtS^–/EtONa), the α-ketobenzothiazole 115 (PhEtSH/PhEtS^–) and the nitroalkene 111 (EtONa) could not be observed. This may have been due to the covalent reversible reaction mechanism of the nitrile and α-ketobenzothiazole and the overall difficult ionization of the specific compounds by an electron spray ionization mass spectrometer.
(§3) Method A (NMR): ^1H-NMR spectra were recorded for the respective warhead and nucleophile mixture, before the addition of the nucleophile (0 min) and after 5, 30, 60, 120 and 240 min reaction time. For quantification, the double bond-signals (doublet/doublet of doublets, around 7.4–6.7 ppm) of the Michael acceptors were integrated relative to 1,3-dioxolane as an internal standard. The acetal CH2 signal of the internal standard at 5.3 ppm was used as a reference.
(§4) The α-ketobenzothiazole 115 and nitrile 117 were similarly analyzed by ^13C-NMR. Therefore, the corresponding ^13C-leucin derivates were synthesized (Scheme 7). Quantifications of the reactions were carried out by using the integral of the carbonyl carbon atom signal at 195 ppm for the α-ketobenzothiazole and 120 ppm for the nitrile moiety. The reference signal of DMSO-d6 was set to 39.52 ppm.
(§5) Method B (LC-MS): The reactivity of the β-lactam test compound 108 with the nucleophiles was investigated using an LC-MS-based method. To quantify the conversion, the AUCs were determined at 254 nm. In Figure 3, the UV spectra of the test reaction of the β-lactam 108 with EtONa are shown exemplarily.
(§6) The β-lactam 108 (0.07 mmol, 1eq) was solved in DMSO-d6 (0.5 mL). The reaction was measured in time intervals before (0 min), 5, 30, 60, 120 and 240 mins after the addition of the corresponding nucleophile (PhEtSH/EtONa, 2 eq) in presence of Et3N (2 eq) or not. In case of PhEtSH as the nucleophile the reaction got quenched by pouring 10 µL of the reaction mixture into a solution of 25 mM TRIS (pH 7.00) and 27 mM maleimide in a 1:1 mixture of acetonitrile/H2O (990 µL). For the reaction with EtONa as the nucleophile, the reaction solution […]

[5] = Reactivity test of warhead probes with EtONa (NMR/LC-MS); type: physicochemical; details: DMSO-d6, at 5 min
From the text: as §1, §2, §3, §4, §5, §6

[6] = Reactivity test of warhead probes with PhEtSH + Et3N (NMR/LC-MS); type: physicochemical; details: DMSO-d6, up to 240 min
From the text: as §1, §2, §3, §4, §5, §6

[7] = Table S1; a) calculated from IC50 with Cheng–Prusoff, irreversible inhibitors from kobs fits, n.a. = not active at 20 µM, read-out: Ki, Rhodesain
[8] = Table S1; a) calculated from IC50 with Cheng–Prusoff, irreversible inhibitors from kobs fits, n.a. = not active at 20 µM, * unstable towards DTT, read-out: Ki, CatS
[9] = Table S1, irreversible inhibitors

Chain of rhodesain (Q95PM0 entry or part of it): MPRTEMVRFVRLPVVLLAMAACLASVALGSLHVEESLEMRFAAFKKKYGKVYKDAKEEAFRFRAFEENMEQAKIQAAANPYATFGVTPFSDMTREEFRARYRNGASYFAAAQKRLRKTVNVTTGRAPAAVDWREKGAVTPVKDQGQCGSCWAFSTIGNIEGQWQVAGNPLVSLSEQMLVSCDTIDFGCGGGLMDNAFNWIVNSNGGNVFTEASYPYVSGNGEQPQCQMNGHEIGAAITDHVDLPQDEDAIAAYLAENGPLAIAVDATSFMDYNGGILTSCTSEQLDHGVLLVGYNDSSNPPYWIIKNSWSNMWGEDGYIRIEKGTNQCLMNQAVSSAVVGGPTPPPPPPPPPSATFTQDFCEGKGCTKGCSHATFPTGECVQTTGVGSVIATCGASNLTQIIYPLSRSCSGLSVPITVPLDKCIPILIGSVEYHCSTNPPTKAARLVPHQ
T1 sequence (P25774 115-331): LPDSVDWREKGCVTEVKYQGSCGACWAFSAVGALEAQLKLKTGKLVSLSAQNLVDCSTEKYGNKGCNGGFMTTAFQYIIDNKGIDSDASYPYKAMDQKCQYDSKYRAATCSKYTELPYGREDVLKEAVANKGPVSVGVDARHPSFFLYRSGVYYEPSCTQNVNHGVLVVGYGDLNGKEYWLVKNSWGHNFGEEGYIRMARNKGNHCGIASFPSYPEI

## CC(C)C[C@@H](/C=C/S(=O)(=O)c1ccccc1)NC(=O)[C@H](Cc1ccccc1)NC(=O)c1cnccn1 [compound 58]
[1]; Ki, Rhodesain
  Ki: 331 ± 41 nM
[1]
  kinact: 0.019 ± 0.001 s⁻¹
[2]; Ki, CatS
  Ki: 126 ± 71 nM
[2]
  kinact: 0.013 ± 0.002 s⁻¹

## COc1cccc2[nH]c(C(=O)N[C@@H](CC(C)C)C(=O)N[C@H](/C=C(\F)S(=O)(=O)c3ccccc3)C[C@@H]3CCNC3=O)cc12 [compound 94]
[1]; [7]
  Ki: 217 ± 31 nM
[2]; [8]
  Ki: 1350 ± 90 nM
[3]
  Ki: 517 ± 33 nM
  activity against M^pro, in words: displayed inhibitory activity

## CCOC(=O)C=CC(=O)C(COCc1ccccc1)NC(=O)C(CC1CCCCC1)NC(=O)N1CCOCC1 (stereo not shown) [compound 40]
[1]; Ki, Rhodesain
  Ki: 35 ± 9 nM
[1]
  kinact: 0.003 ± 0.0001 s⁻¹
[2]; Ki, CatS
  Ki: 22 ± 4 nM
[2]
  kinact: 0.0023 ± 7e-05 s⁻¹

## CC(C)C[C@@H]([13C]#N)NC(=O)OC(C)(C)C [compound 117]
[4]; DMSO-d6, time not stated
  conversion with PhEtSH: 7%
[4]; DMSO-d6, up to 240 min
  reactivity with PhEtSH (protonated thiol), in words: did indeed react
[5]
  conversion with EtONa: 10%
[6]
  reactivity with PhEtSH + Et3N (deprotonated thiol), in words: Every warhead except the β-lactam 108 and the nitrile 117 reacted; also recorded: no reaction

## COc1cccc2[nH]c(C(=O)N[C@@H](CC(C)C)C(=O)N[C@@H](C[C@@H]3CCNC3=O)C(=O)NC3CN(c4ccccc4)C3=O)cc12 (stereo partly shown) [compound 96]
[3]
  activity against M^pro, in words: inactive at 20 µM

## CC(=O)NCC(=O)NC(C(=O)N[C@@H](C)C(=O)N[C@H](/C=C(\F)S(=O)(=O)c1ccccc1)CCCNC(=N)N)[C@H](C)O (stereo partly shown) [compound 107]
[1]
  activity against rhodesain, in words: inactive
[2]
  activity against CatS, in words: not active at 20 µM

## COc1cccc2[nH]c(C(=O)N[C@@H](CC(C)C)C(=O)N[C@@H](C[C@@H]3CCNC3=O)C(=O)c3nc4ccccc4s3)cc12 [compound 90]
[3]
  activity against M^pro, in words: displayed inhibitory activity

## O=C(N[C@@H](Cc1ccccc1)C(=O)N[C@@H](CCc1ccccc1)C(=O)c1nc2ccccc2s1)OCc1ccccc1 [compound 18]
[1]
  activity against rhodesain, in words: inactive at 20 µM

## O=C(N[C@@H](Cc1ccccc1)C(=O)N[C@H](/C=C/S(=O)(=O)c1ccccc1)CCc1ccccc1)OCc1ccccc1 [compound 16]
[1]; Ki, Rhodesain
  Ki: 20 ± 2 nM
[1]; pKi, Rhodesain inhibition
  Ki: 20 nM
[1]
  kinact: 0.005 ± 0.0001 s⁻¹
[2]; pKi, Cathepsin S inhibition
  Ki: 1 nM
[2]
  kinact: 0.0037 ± 0.0006 s⁻¹

## N#C[C@H](CCc1ccccc1)NC(=O)[C@H](Cc1ccccc1)NC(=O)OCc1ccccc1 [compound 25]
[1]; Ki, Rhodesain
  Ki: 88 ± 17.4 nM
[2]; Ki, CatS
  Ki: 136 ± 12 nM

## O=C(NC(COCc1ccccc1)C(=O)c1nc2ccccc2s1)C(CC1CCCCC1)NC(=O)N1CCOCC1 (stereo not shown) [compound 42]
[1]
  activity against rhodesain, in words: submicromolar affinity
[1]; Ki, Rhodesain
  Ki: 324 ± 89 nM
[2]; Ki, CatS
  Ki: 233 ± 24 nM
[2]; pKi, Cathepsin S inhibition
  Ki: 316 nM

## CCOC(=O)/C=C/C(=O)[C@H](CCc1ccccc1)NC(=O)[C@H](Cc1ccccc1)NC(=O)OCc1ccccc1 [compound 22]
[1]; Ki, Rhodesain
  Ki: 79 ± 7 nM
[1]
  kinact: 0.008 ± 0.001 s⁻¹
[2]; Ki, CatS
  Ki: 18 ± 3 nM
[2]
  kinact: 0.0022 ± 0.0001 s⁻¹

## O=C(NC1CN(c2ccccc2)C1=O)C(COCc1ccccc1)NC(=O)C(CC1CCCCC1)NC(=O)N1CCOCC1 (stereo not shown) [compound 45]
[2]; Ki, CatS
  Ki: 860 ± 130 nM
[2]
  kinact: 0.00046 ± 2e-05 s⁻¹

## O=C(N[C@@H](Cc1ccccc1)C(=O)N[C@H](/C=C/[N+](=O)[O-])CCc1ccccc1)OCc1ccccc1 [compound 13]
[1]; Ki, Rhodesain
  Ki: 0.06 ± 0.006 nM
[2]; Ki, CatS
  Ki: 201 ± 93 nM

## CC(C)C[C@H](NC(=O)OC(C)(C)C)[13C](N)=O [compound 116]
[4]; DMSO-d6
  time until equilibrium was reached with PhEtSH: 5 min

## CCOC(=O)/C=C/C(=O)[C@H](C[C@@H]1CCNC1=O)NC(=O)[C@H](CC(C)C)NC(=O)c1cc2c(OC)cccc2[nH]1 [compound 81]
[1]; [7]
  Ki: 99 ± 24 nM
[1]; [9]
  kinact: 0.006 ± 0.0009 s⁻¹
[2]; initial screen at 20 µM, cut-off 80% inhibition
  activity against CatS, in words: essentially inactive

## N#CC(COCc1ccccc1)NC(=O)C(CC1CCCCC1)NC(=O)N1CCOCC1 (stereo not shown) [compound 30]
[1]; Ki, Rhodesain
  Ki: 21 ± 2 nM

## CC(=O)NCC(=O)NC(C(=O)N[C@@H](C)C(=O)N[C@H](/C=C/S(=O)(=O)c1ccccc1)CCCNC(=N)N)[C@H](C)O (stereo partly shown) [compound 106]
[1]
  activity against rhodesain, in words: inactive
[2]
  activity against CatS, in words: not active at 20 µM

## O=C(NC(C=C(F)S(=O)(=O)c1ccccc1)COCc1ccccc1)C(CC1CCCCC1)NC(=O)N1CCOCC1 (stereo not shown) [compound 36]
[2]; Ki, CatS
  Ki: 3210 ± 612 nM

## COc1cccc2[nH]c(C(=O)N[C@@H](CC(C)C)C(=O)N[C@H](/C=C/[N+](=O)[O-])C[C@@H]3CCNC3=O)cc12 [compound 88]
[1]; calculated from Ki, –log10(Ki/M), read-out: pKi, Rhodesain inhibition (converted)
  Ki: 2 nM
[2]; [8]
  Ki: 388 ± 277 nM
[3]
  Ki: 2200 ± 184 nM
  activity against M^pro, in words: displayed inhibitory activity

## O=C(N[C@@H](Cc1ccccc1)C(=O)N[C@H](/C=C(\F)S(=O)(=O)c1ccccc1)CCc1ccccc1)OCc1ccccc1 [compound 17]
[1]; Ki, Rhodesain
  Ki: 3570 ± 437 nM
[2]; Ki, CatS
  Ki: 966 ± 104 nM
[2]; pKi, Cathepsin S inhibition
  Ki: 1000 nM

## COc1cccc2[nH]c(C(=O)N[C@@H](CC(C)C)C(=O)N[C@H](/C=C/S(=O)(=O)c3ccccc3)C[C@@H]3CCNC3=O)cc12 [compound 93]
[1]; [7]
  Ki: 2000 ± 604 nM
[1]; [9]
  kinact: 0.029 ± 0.008 s⁻¹
[2]; [8]
  Ki: 330 ± 65 nM
[2]; [9]
  kinact: 0.0087 ± 0.0001 s⁻¹
[2]; calculated from Ki, –log10(Ki/M), read-out: pKi, Cathepsin S inhibition (converted)
  Ki: 398 nM
[3]
  Ki: 3530 ± 1110 nM
  activity against M^pro, in words: displayed inhibitory activity
[3]; read-out: kinact, MPro
  kinact: 0.0137 ± 0.0061 s⁻¹

## COc1cccc2[nH]c(C(=O)N[C@@H](CC(C)C)C(=O)N[C@H](C#N)C[C@@H]3CCNC3=O)cc12 [compound 84]
[1]; [7]
  Ki: 42 ± 5 nM
[2]; [8]
  Ki: 104 ± 9 nM
[3]
  activity against M^pro, in words: displayed inhibitory activity

## O=C(NC(C=CS(=O)(=O)c1ccccc1)COCc1ccccc1)C(CC1CCCCC1)NC(=O)N1CCOCC1 (stereo not shown) [compound 35]
[1]; Ki, Rhodesain
  Ki: 22 ± 2 nM
[1]
  kinact: 0.006 ± 0.0004 s⁻¹
[2]; pKi, Cathepsin S inhibition
  Ki: 3.16 nM
[2]
  kinact: 0.0202 ± 0.0006 s⁻¹

## O=C(N[C@@H](Cc1ccccc1)C(=O)N[C@@H](CCc1ccccc1)C(=O)N[C@H]1CN(c2ccccc2)C1=O)OCc1ccccc1 [compound 24]
[1]
  activity against rhodesain, in words: inactive at 20 µM

## O=C(NC(C=C[N+](=O)[O-])COCc1ccccc1)C(CC1CCCCC1)NC(=O)N1CCOCC1 (stereo not shown) [compound 49]
[1]; pKi, Rhodesain inhibition
  Ki: 2 nM
[2]; Ki, CatS
  Ki: 12 ± 1 nM
